According to patent US11465963B2, “Tetrahydronaphthalene derivatives useful as Nrf2 activators” (BIOGEN MA INC., priority 2017, dated 2022):

What was measured:
Assay type in all cases: cell-based
human astrocytes [1] = test: Glutathione assay in cultured human astrocytes; conditions: 20-hr exposure, FIG. 2
Procedure: (§1) Human astrocytes from ScienCell (cat #1820) were grown in astrocyte medium per supplier's instructions. Cells cultured for no more than two passages were plated in 96-well plates at 40,000 cells per well for gene transcription experiments and 20,000 cells per well for glutathione and cytoprotection assays.
Intracellular glutathione was measured after a 20-hr exposure to test compounds by a two-step process. First, cells were lysed and luciferin quantitatively generated from substrate, catalyzed by glutathione-S-transferase in the presence of analyte glutathione. Then luciferin was assayed using stabilized luciferase to produce a luminescent signal proportional to the concentration of glutathione (Promega GSH-Glo, cat #V6912).

human astrocytes [2] = test: Cytoprotection of human astrocytes from sodium arsenite; conditions: compound 20 hrs before 25 μM sodium arsenite, then 22 hrs, FIG. 3
Procedure: Human astrocytes from ScienCell (cat #1820) were grown in astrocyte medium per supplier's instructions. Cells cultured for no more than two passages were plated in 96-well plates at 40,000 cells per well for gene transcription experiments and 20,000 cells per well for glutathione and cytoprotection assays. Astrocytes were treated for 20 hrs as above, then the medium was removed and replaced with serum- and supplement-free growth medium with and without 25 μM sodium arsenite. After 22 hrs., cells were washed with PBS, fixed with 4% paraformaldehyde/4% sucrose in PBS, stained with 4′,6-Diamidino-2-phenylindole dihydrochloride (DAPI) and counted by quantitative fluorescence microscopy.

[3] = tested on: Nrf2 target genes, including GCLC, HMOX1, OSGIN1 and NQO1; test: Gene expression (RT-PCR) in cultured human astrocytes; conditions: human astrocytes treated with increasing concentrations for 20 hours
Procedure: as §1
Primary cultures of human spinal cord astrocytes were treated with compound for 20 hours. The cells were then rinsed in PBS, lysed, and processed for RNA using Ambion Taqman™ Cells-to-CT kit. The resulting cDNA was stored at −20° C. until analysis by real-time polymerase chain reaction (RT-PCR). The cDNA mixture from Cells-to-CT was diluted 5× before loading into PCR. This yields results similar to using 6 ng of purified cDNA. RT-PCR was performed on Life Technologies QuantStudio platform using OpenArray technique according to manufacturer's protocol using the following Taqman primers: […]
The comparative CT method was used to calculate fold changes using ThermoFisher Cloud software for PCR analysis. Samples were compared to vehicle control.

CC1(C)C(=O)C(C#N)=C[C@]2(C)C[C@](O)(c3ccccc3)CC[C@H]12 [Compound 24, (4aS,7S,8aS)-7-hydroxy-4,4,8a-trimethyl-3-oxo-7-phenyl-4a,5,6,8-tetrahydronaphthalene-2-carbonitrile]
intracellular glutathione (human astrocytes [1]): increases
protection from oxidative stress-induced cell death (human astrocytes [2]): protects
transcription of GCLC ([3]; FIG. 1A): induces transcription
transcription of HMOX1 ([3]; FIG. 1B): induces transcription
transcription of OSGIN1 ([3]; FIG. 1C): induces transcription
transcription of NQO1 ([3]; FIG. 1D): induces transcription
